Data set [1] concerns MDR1. Put plainly: MDCK-MDR1 permeability assay. As to conditions: dog, MDCK-MDR1, MDCK-MDR1 cells; for efflux ratio at 2 h, 3 μM: Papp B→A divided by Papp A→B, read-out: Efflux ratio (ER); for Papp A→B at 2 h, 3 μM: test compound 3 μM, 2 hours at 37 degrees C, apical to basolateral. The data set is classed as in vitro ADME. The procedure, abridged: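 Receiver and donor compartments were analysed by LC-MS/MS after a 2 h incubation at 37 °C of 3 μM compound in HBSS on MDCK-MDR1 monolayers, run in both directions with Lucifer Yellow (100 μM) as integrity marker. Apparent permeability came from translocation rate, insert area and initial concentration; B→A/A→B Papp gave the efflux ratio, alongside percent recovery.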

Data set [2] relates to Sprague-Dawley rats. As to the kind of experiment: Assessment of wake promotion in Sprague-Dawley rats (EEG/EMG). It counts as in vivo, rat. The following applies: male Sprague-Dawley rats, 3 mpk, dosed at ZT5, 6-hour post-dose period.

We go through 11 compounds from US12006330B2, “Substituted macrocyclic compounds and related methods of treatment” (Alkermes, Inc., priority 2020, dated 2024).

For orientation: Papp A→B means how fast a substance crosses the layer from the apical side. Lower therefore signals poor permeation.

SMILES strings stand for the structures.

`Cc1ncnc2c1[C@H]1CC[C@H](CC1)OCC1[C@@H](NS(C)(=O)=O)CCCN1C(=O)CO2` (stereo in doubt) [Compound 27]: the efflux ratio at 2 h, 3 μM in data set [1] stood at 48. Moreover, the “Mean cortical activation time (% vehicle treatment)” value in data set [2] (PO) was 138.57 % vehicle treatment.
On to `O=C1COc2ncccc2[C@H]2CC[C@H](CC2)OCC2[C@@H](NS(=O)(=O)C(F)(F)F)CCCN12` (stereo in doubt) [Compound 91], for which, in data set [1], the efflux ratio at 2 h, 3 μM was determined as 47 and the Papp A→B at 2 h, 3 μM came to 9.6 nm/s. Also, in data set [2] (PO), the “Mean cortical activation time (% vehicle treatment)” value stood at 151.55 % vehicle treatment.
On to `Cc1ccnc2c1[C@H]1CC[C@H](CC1)OCC1[C@@H](NS(=O)(=O)C(F)(F)F)CCN1C(=O)CO2` (stereo in doubt) [Compound 94], for which, in data set [1], the efflux ratio at 2 h, 3 μM was 4.7 and the Papp A→B at 2 h, 3 μM was determined as 87 nm/s. Also, in data set [2] (PO), the “Mean cortical activation time (% vehicle treatment)” value worked out at 152.81 % vehicle treatment.
In the same order, the values of `O=C1COc2cccc(F)c2[C@H]2CC[C@H](CC2)OCC2[C@@H](NS(=O)(=O)C(F)(F)F)CCCN12` (stereo in doubt) [Compound 95] are 15, 20 nm/s and 312.26 % vehicle treatment.
The like results for `O=C1COc2nccnc2[C@H]2CC[C@H](CC2)OCC2[C@@H](NS(=O)(=O)C(F)(F)F)CCCN12` (stereo in doubt) [Compound 98] were, in that order, 57, 5.2 nm/s and 84.91 % vehicle treatment.
The like results for `Cc1ncnc2c1[C@H]1CC[C@H](CC1)OCC1[C@@H](NS(=O)(=O)C(F)(F)F)CCCN1C(=O)CO2` (stereo in doubt) [Compound 99] were, in that order, 52, 4.6 nm/s and 97.17 % vehicle treatment.
On to `O=C1COc2ccccc2[C@H]2CC[C@H](CC2)OCC2[C@@H](NS(=O)(=O)C(F)(F)F)CCN12` (stereo in doubt) [Compound 100], for which, in data set [1], the efflux ratio at 2 h, 3 μM came out at 1.3 and the Papp A→B at 2 h, 3 μM is 120 nm/s. Further, the “Mean cortical activation time (% vehicle treatment)” value in data set [2] (PO) amounted to 265.17 % vehicle treatment.
In the case of `Cc1cccc2c1[C@H]1CC[C@H](CC1)OC[C@H]1[C@@H](NS(C)(=O)=O)CCN1C(=O)CO2` [Compound 20], in data set [1], the efflux ratio at 2 h, 3 μM came to 6.4 and the Papp A→B at 2 h, 3 μM worked out at 68 nm/s. For the same compound, in data set [2] (PO), the “Mean cortical activation time (% vehicle treatment)” value is 154.26 % vehicle treatment.
With `CC(C)S(=O)(=O)N[C@H]1CCN2C(=O)COc3c(F)cc(F)cc3[C@H]3CC[C@H](CC3)OC[C@@H]12` [Compound 29], in data set [1], the efflux ratio at 2 h, 3 μM stood at 2.5 and the Papp A→B at 2 h, 3 μM is 64 nm/s. Moreover, the “Mean cortical activation time (% vehicle treatment)” value in data set [2] (PO) came to 214.61 % vehicle treatment.
`COC(=O)N1CCC[C@H](NS(C)(=O)=O)[C@@H]1CO[C@H]1CC[C@@H](c2ccccc2)CC1` [Reference Compound A, methyl (2R,3S)-3-((methylsulfonyl)amino)-2-(((cis-4-phenylcyclohexyl)oxy)methyl)-piperidine-l-carboxylate, reference compound]: in data set [1], the efflux ratio at 2 h, 3 μM was determined as 5.9 and the Papp A→B at 2 h, 3 μM stood at 50 nm/s. Also, the “Mean cortical activation time (% vehicle treatment)” value in data set [2] (SC) is listed as 118.75 % vehicle treatment.
`CC(C)(O)C(=O)N1CC[C@H](NS(C)(=O)=O)[C@@H]1Cc1cccc(-c2cc(F)cc(F)c2)c1F` [Reference Compound B, N-((2S,3S)-1-(2-hydroxy-2-methylpropanoy1)-2-((2,3′,5′-trifluorobipheny1-3-yl)methyl)pyrrolidin-3-yl)methanesulfonamide, reference compound]: in data set [1], the efflux ratio at 2 h, 3 μM was above 100 and the Papp A→B at 2 h, 3 μM is 2.1 nm/s. Also, the “Mean cortical activation time (% vehicle treatment)” value in data set [2] (PO) stood at 110.4 % vehicle treatment.
